Measured values from patent publication US12410160B2 (Gilead Sciences, Inc., priority 2021, dated 2025).

Assays:
[1] = molecular target: KHK-C expressed in NRK-52E cells (Homo sapiens (Human), UniProt P50053); assay: KHK-C Cell-based Assay (EC50), NRK CTG, fructose-mediated ATP-depletion
human KHK-C = human KHK-C (Homo sapiens (Human), UniProt P50053); assay: KHK Biochemical Assay (IC50), ADP-Glo, KHK-C; conditions: average of at least two separate assays
Summary of the method: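 Luminescent ADP-Glo read-out of ADP made by His-tagged KHK (BL21 (DE3) expression, Ni-NTA). Enzyme and compound sat together 30 min before ATP/fructose addition, then reacted 4 h at RT in Hepes pH 7.4 buffer with KCl, MgCl2, Triton-X. Quench 1 h, detection 1 h.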

Sequence of human KHK-C (P50053 whole entry): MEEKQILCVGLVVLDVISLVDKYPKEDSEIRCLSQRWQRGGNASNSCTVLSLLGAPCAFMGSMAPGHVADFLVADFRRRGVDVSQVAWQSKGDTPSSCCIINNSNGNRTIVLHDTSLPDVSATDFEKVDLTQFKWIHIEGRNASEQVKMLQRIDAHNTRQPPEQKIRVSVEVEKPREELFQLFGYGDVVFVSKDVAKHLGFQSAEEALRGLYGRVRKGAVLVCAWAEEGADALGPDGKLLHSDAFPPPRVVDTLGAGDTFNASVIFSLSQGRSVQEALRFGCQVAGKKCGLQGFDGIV
Sequence of KHK-C expressed in NRK-52E cells (P50053 whole entry): as above

Structure (SMILES)	EC50 [1] [nM]	IC50 (human KHK-C) [nM]
Cc1cc(-c2nc(N3C[C@@H](O)[C@@H]3C)nc3c2CCC3(F)F)ccc1C1(N)COC1 [Example 505, (2S,3R)-1-(4-(4-(3-aminooxetan-3-yl)-3-methylphenyl)-7,7-difluoro-6,7-dihydro-5H-cyclopenta[d]pyrimidin-2-yl)-2-methylazetidin-3-ol]	11.9	2.4
C[C@H]1[C@H](O)CN1c1nc(-c2ccc(C3(N)COC3)nc2)c2c(n1)C(F)(F)CC2 [Example 506, (2S,3R)-1-(4-(6-(3-aminooxetan-3-yl)pyridin-3-yl)-7,7-difluoro-6,7-dihydro-5H-cyclopenta[d]pyrimidin-2-yl)-2-methylazetidin-3-ol]	> 5000	> 5000
C[C@H]1[C@H](O)CN1c1nc(-c2ccc3c(c2)C(=O)N(C)CC3)c2c(n1)C(F)(F)CC2 [Example 600, 7-(7,7-difluoro-2-((2S,3R)-3-hydroxy-2-methylazetidin-1-yl)-6,7-dihydro-5H-cyclopenta[d]pyrimidin-4-yl)-2-methyl-3,4-dihydroisoquinolin-1(2H)-one]	125	13.6
C[C@H]1[C@H](O)CN1c1nc2c(c(-c3ccc4c(c3)S(=O)(=O)CNC4=O)n1)CCC2 [Example 601, 7-(2-((2S,3R)-3-hydroxy-2-methylazetidin-1-yl)-6,7-dihydro-5H-cyclopenta[d]pyrimidin-4-yl)-2,3-dihydro-4H-benzo[e][1,3]thiazin-4-one 1,1-dioxide]	> 5000	95.1
C[C@H]1CCN1c1nc2c(c(-c3ccc4c(c3)CN(S(=O)(=O)CCO)CC4)n1)CCC2 [Example 605]	150	96.8
C[C@H]1[C@H](O)CN1c1nc2c(c(-c3cccc(CNS(=O)(=O)C4CC4)c3)n1)CCC2 [Example 610]	610	80.7
C[C@H]1[C@H](O)CN1c1nc(-c2ccc3c(c2)CN(S(C)(=O)=O)CC3)c2c(n1)C(F)(F)CC2 [Example 611, (2S,3R)-1-(7,7-difluoro-4-(2-(methylsulfonyl)-1,2,3,4-tetrahydroisoquinolin-7-yl)-6,7-dihydro-5H-cyclopenta[d]pyrimidin-2-yl)-2-methylazetidin-3-ol]	92	32
CN1C(=O)N[C@]2(CCc3cc(-c4nc(N5CC[C@@H]5CF)nc5c4CCC5(F)F)ccc32)C1=O [Example 676, (5S)-5′-[7,7-difluoro-2-[(2R)-2-(fluoromethyl)azetidin-1-yl]-5,6-dihydroeyelopenta[d]pyrimidin-4-yl]-3-methyl-spiro[imidazolidine-5,1′-indane]-2,4-dione]	1.2	0.2
CCN1C(=O)N[C@]2(CCc3cc(-c4nc(N5C[C@@H](O)[C@@H]5C)nc5c4CCC5(F)F)ccc32)C1=O [Example 685, (58)-5′-[7,7-difluoro-2-[(2S,3R)-3-hydroxy-2-methyl-azetidin-1-yl]-5,6-dihydrocyclopenta[d]pyrimidin-4-yl]-3-ethyl-spiro[imidazolidine-5,1′-indane]-2,4-dione]	2.1	0.2
C[C@H]1CCN1c1nc2c(c(-c3cn(C4COC4)nn3)n1)CCC2 [Example 704, 2-[(2S)-2-methylazetidin-1-yl]-4-[1-(oxetan-3-yl)triazol-4-yl]-6,7-dihydro-5H-cyclopenta[d]pyrimidine]	1330	254
N#CC1CCN1c1nc(-c2ccc(C(N)=O)cc2)c2c(n1)C(F)(F)CC2 (stereo not drawn) [Example 706, 4-(2-(2-cyanoazetidin-1-yl)-7,7-difluoro-6,7-dihydro-5H-cyclopenta[d]pyrimidin-4-yl)benzamide]	366	67.2
N#C[C@H]1CCN1c1nc(-c2ccc(C(N)=O)cc2)c2c(n1)C(F)(F)CC2 [Example 707, (R)-4-(2-(2-cyanoazetidin-1-yl)-7,7-difluoro-6,7-dihydro-5H-cyclopenta[d]pyrimidin-4-yl)benzamide]	330	43.4
N#CC1CN(c2nc(-c3ccc(C(N)=O)cc3)c3c(n2)C(F)(F)CC3)C1 [Example 708, 4-(2-(3-cyanoazetidin-1-yl)-7,7-difluoro-6,7-dihydro-5H-cyclopenta[d]pyrimidin-4-yl)benzamide]	> 5000	> 5000
CS(=O)(=O)c1cccc(-c2nc(N3CCC[C@H]3C#N)nc3c2CCC3)c1 [Example 712, (S)-1-(4-(3-(methylsulfonyl)phenyl)-6,7-dihydro-5H-cyclopenta[d]pyrimidin-2-yl)pyrrolidine-2-carbonitrile]	> 5000	> 5000
CS(=O)(=O)c1cccc(-c2nc(N3CCC[C@@H]3C#N)nc3c2CCC3)c1 [Example 713, (R)-1-(4-(3-(methylsulfonyl)phenyl)-6,7-dihydro-5H-cyclopenta[d]pyrimidin-2-yl)pyrrolidine-2-carbonitrile]	4900	2340
CC1(C#N)CCN1c1nc2c(c(-c3cccc(S(C)(=O)=O)c3)n1)CCC2 (stereo not drawn) [Example 714, 2-methyl-1-(4-(3-(methylsulfonyl)phenyl)-6,7-dihydro-5H-cyclopenta[d]pyrimidin-2-yl)azetidine-2-carbonitrile]	> 5000	> 5000
C[C@H]1CCN1c1nc2c(c(-c3ccc4nc(N)oc4c3)n1)CCC2 [Example 728, (S)-6-(2-(2-methylazetidin-1-yl)-6,7-dihydro-5H-cyclopenta[d]pyrimidin-4-yl)benzo[d]oxazol-2-amine]	52.1	22.2
NC(=O)c1ccc(-c2nc(N3CCC34COC4)nc3c2CCC3)cc1 [Example 730, 4-(2-(6-oxa-1-azaspiro[3.3]heptan-1-yl)-6,7-dihydro-5H-cyclopenta[d]pyrimidin-4-yl)benzamide]	5000	2390
C[C@H]1CCN1c1nc2c(c(-c3ccc4[nH]c(N)nc4c3)n1)CCC2 [Example 731, (S)-5-(2-(2-methylazetidin-1-yl)-6,7-dihydro-5H-cyclopenta[d]pyrimidin-4-yl)-1H-benzo[d]imidazol-2-amine]	250	5.2
C[C@H]1CCN1c1nc2c(c(-c3cnc(N)nc3)n1)CCC2 [Example 732, (S)-5-(2-(2-methylazetidin-1-yl)-6,7-dihydro-5H-cyclopenta[d]pyrimidin-4-yl)pyrimidin-2-amine]	361	87.9
C[C@H]1CCN1c1nc2c(c(-c3ccc4sc(N)nc4c3)n1)CCC2 [Example 733, (S)-5-(2-(2-methylazetidin-1-yl)-6,7-dihydro-5H-cyclopenta[d]pyrimidin-4-yl)benzo[d]thiazol-2-amine]	124	49.8
C[C@H]1CCN1c1nc2c(c(-c3ccc4nc(N)sc4c3)n1)CCC2 [Example 734, (S)-6-(2-(2-methylazetidin-1-yl)-6,7-dihydro-5H-cyclopenta[d]pyrimidin-4-yl)benzo[d]thiazol-2-amine]	91.1	72.3
C[C@H]1CCN1c1nc2c(c(-c3ccc4oc(N)nc4c3)n1)CCC2 [Example 736, (S)-5-(2-(2-methylazetidin-1-yl)-6,7-dihydro-5H-cyclopenta[d]pyrimidin-4-yl)benzo[d]oxazol-2-amine]	34.9	21
C[C@H]1[C@H](O)CN1c1nc(-c2ccc(C(=O)NCC#N)cc2)c2c(n1)C(F)(F)CC2 [Example 737, N-(cyanomethyl)-4-(7,7-difluoro-2-((2S,3R)-3-hydroxy-2-methylazetidin-1-yl)-6,7-dihydro-5H-cyclopenta[d]pyrimidin-4-yl)benzamide]	242	9.7
C[C@H]1[C@H](O)CN1c1nc2c(c(-c3cc4c(c(S(N)(=O)=O)c3)OCC4)n1)CCC2 [Example 739, 5-(2-((2S,3R)-3-hydroxy-2-methylazetidin-1-yl)-6,7-dihydro-5H-cyclopenta[d]pyrimidin-4-yl)-2,3-dihydrobenzofuran-7-sulfonamide]	215	38.4
C[C@@H](NS(C)(=O)=O)c1ccc(-c2nc(N3C[C@@H](O)[C@@H]3C)nc3c2CCC3(F)F)cc1 [Example 740, N-[(1R)-1-[4-[7,7-difluoro-2-[(2S,3R)-3-hydroxy-2-methyl-azetidin-1-yl]-5,6-dihydrocyclopenta[d]pyrimidin-4-yl]phenyl]ethyl]methanesulfonamide]	323	40.3
C[C@@H](NS(C)(=O)=O)c1cccc(-c2nc(N3C[C@@H](O)[C@@H]3C)nc3c2CCC3(F)F)c1 [Example 741, N-[(1R)-1-[3-[7,7-difluoro-2-[(2S,3R)-3-hydroxy-2-methyl-azetidin-1-yl]-5,6-dihydrocyclopenta[d]pyrimidin-4-yl]phenyl]ethyl]methanesulfonamide]	224	24.9
C[C@H]1CCN1c1nc(-c2cc3c(c(S(N)(=O)=O)c2)OCC3)c2c(n1)C(F)(F)CC2 [Example 742, 5-[7,7-difluoro-2-[(2S)-2-methylazetidin-1-yl]-5,6-dihydrocyclopenta[d]pyrimidin-4-yl]-2,3-dihydrobenzofuran-7-sulfonamide]	4.1	1.3
C[C@H]1CCN1c1nc2c(c(-c3ccc(C4(NS(C)(=O)=O)CCC4)cc3)n1)CCC2 [Example 743, N-[1-[4-[2-[(2S)-2-methylazetidin-1-yl]-6,7-dihydro-5H-cyclopenta[d]pyrimidin-4-yl]phenyl]cyclobutyl]methanesulfonamide]	1680	1020
C[C@H](NS(C)(=O)=O)c1ccc(-c2nc(N3C[C@@H](O)[C@@H]3C)nc3c2CCC3(F)F)cc1 [Example 744, N-[(1S)-1-[4-[7,7-difluoro-2-[(2S,3R)-3-hydroxy-2-methyl-azetidin-1-yl]-5,6-dihydrocyclopenta[d]pyrimidin-4-yl]phenyl]ethyl]methanesulfonamide]	142	17.2
